Measurements taken from patent EP1242382B1, “TRICYCLIC PROTEIN KINASE INHIBITORS” (Wyeth, priority 1999, dated 2001).

How the values were obtained:
Raf-1 (c-Raf) = biological target: T1, Raf-1 (c-Raf) (Homo sapiens, UniProt P04049); assay: Raf1 kinase cascade assay procedure; assay type: biochemical
T1 construct: Sf9 insect cell lysate containing full length 6his-tagged recombinant human c-Raf; host or cells: c-Raf: Sf9 insect cell lysate; MEK1 and MAPK: E. coli
Experimental: (Specific Activity: ~200U/ml). Human Non-active Mek-1-GST and human GST-MAP kinase (recombinant proteins produced in E. coli).
• 1. Assay Dilution Buffer (ADB): 20mM MOPS, pH 7.2, 25mM β-glycerol phosphate, 5mM EGTA, 1mM sodium orthovanadate, 1mM dithiothreitol. • 2. Magnesium/ATP Cocktail: 500µM cold ATP and 75 mM magnesium chloride in ADB. • 4. Active Kinase: Human Active c-Raf: Use at 0.4U per assay point • 5. Non-active GST-MEK1: Use at 0.1µg per assay point. • 6. Non-active GST-p42 MAP Kinase: Use at 1.0 µg per assay point
• 1. TBST - Tris (50 mM, pH 7.5), NaCl (150 mM), Tween-20 (0.05 %) • 2. Superblock (Pierce) • 3. Anti-GST Ab (Pharmacia) • 4. Anti-Phospho MAPK (Sigma) • 5. Anti-Mouse Ab / Europium conjugate (Wallac)
First Stage: c-Raf Dependent Activation of GST-MEK and GST-MAPK • 1. Add […] of ADB per assay (i.e. per well of a 96 well plate) • 2. Add 10 ml of 0.5 mM cold ATP and 75 mM magnesium chloride in ADB. • 3. Add 2 ml of c-Raf (0.4U/assay), in conjunction with 1.6ml non-active MEK1 ([…]). • 4. Add 4 ml of non-active GST-p42 MAP Kinase (1.0 mg/assay). • 5. Incubate for 60 minutes at 30°C in a shaking incubator. • 6. Transfer this mixture to an anti-GST Ab coated 96 well plate (Nunc Immunosorb plates coated o/n with a-GST, then blocked with Pierce Superblock). • 7. Incubate for 60 minutes at 30°C in a shaking incubator Wash 3X with TBST, add Anti-Phospho MAPK (Sigma) (1:3000) • 6. Incubate for 60 minutes at 30°C in a shaking incubator • 7. Wash 3X with TBST, add Anti-Mouse Ab / Europium conjugate (Wallac) (1:500) • 8. Incubate for 60 minutes at 30°C in a shaking incubator • 9. Wash 3X with TBST, Read plates in Wallac Victor model Plate Reader. • 10. Collect data analyze in Excel for single point and IC50 determinations.
Typically Raf-1 assay is run at compound concentrations from 10 µM to 1 nM in half log dilutions. (% inhibition is determined for each compound concentration).

[1] = test system: Human adenocarcinoma cell line LoVo; assay: Cell based screen for inhibitors of Raf kinase, quantitative assay; conditions: 96 h, four days incubation
Experimental: (§1) • Cell Lines: Human adenocarcinoma cell line LoVo which is known to be growth inhibited by low nM concentrations of a reference standard inhibitor of Ras and human adenocarcinoma cell line CaCo-2, which is known to be growth resistant to the same reference compound. • Cell Media : RPMI 1640 with 10% Fetal Bovine Serum supplemented with L-glutamine and Pennicilin/Streptomycin. • Compounds: Supplied usually as a 10 mM stock in 100% DMSO. • Normal Saline: 150 mM NaCl • Trichloroacetic Acid (TCA): 50% (w/v) in water • Sulforhodamine B (SRB): 0.4% (w/v) in 1% Acetic Acid • Tris Base: 10 mM in water
(§2) Cells are plated at 2000 cells per well for cell line LoVo and 1500 cells for cell line CaCo-2 in 96 well plates. Cells are plated in media (200 µl) and allowed to adhere overnight at 37°C. At 24 hours post plating, compounds are added directly at a volume of 0.5 µl. For the qualitative screen (compounds screened at 25 µM) compound is added directly to cells. For the quantitative screen, compound is first diluted in DMSO to generate concentrations of compound or reference standard of: 1, 5, 10 and 25 µM. It is advisable to make the dilutions in an identical 96 well plate so that compounds can be added using a multichannel micropipettor set at 0.5 µl. The cells are then incubated for four days after which the media is removed using a 12 well manifold by first tipping the plate forward at a 45 degree angle and then inserting the manifold in an upright orientation to prevent the tips of the manifold from disturbing cells at the bottom of the plate. 200 µl of normal saline is then added to each well using an 8 well multichannel pipettor, followed by the careful addition of 50 µl of 50% TCA. The plates are then incubated for 2 hours at 4°C, after which the supernatant is removed using the same technique as above and the plated washed twice with 200 µl water. The plates are then air dried and 50 µl of SRB stock solution is carefully added so that the entire bottom of each well is covered. This again can be used using an 8 well multichannel pipettor. The SRB is incubated with fixed cells for 15 minutes at room temperature after which the SRB is removed with the manifold as described above and the plates washed twice with 350 µl of 1% acetic acid per well each time. The plates are then air dried after which the bound SRB is released from protein by the addition of 200 µl of Tris base. Resolubilizing the SRB is aided by placing the plates on a rotator for 15-30 minutes. The absorbance of each well is determined at 550 or 562 nm using a microtiter plate reader.
(§3) Each compound or dilution thereof is performed in triplicate. Outliers are identified by visual inspection of the data. Each plate should have a "0" control (vehicle only).
(§4) Quantitative Assay: A standard curve is constructed by plotting the concentration of compound against the average absorbance calculated at that concentration. […] Multiple entries for a given compound indicate that it is tested multiple times.

[2] = test system: human adenocarcinoma cell line CaCo-2; assay: as above; conditions: Caco-2, 96 h, four days incubation
Experimental: as §1, §2, §3, §4

[3] = biological target: T2, EGF-R Kinase (recombinant enzyme) (Homo sapiens, UniProt P00533); assay: Inhibition of Epidermal Growth Factor Receptor Kinase (EGF-R) using recombinant enzyme; assay type: biochemical; conditions: RR-SRC peptide substrate, (a) = average of two tests
T2 construct: EGFR cDNA encoding amino acids 645 - 1186 preceded by Met-Ala-(His)6; made in house; host or cells: Sf9 insect cells, recombinant baculovirus vHcEGFR52
T2 sequence (P00533 669-1210): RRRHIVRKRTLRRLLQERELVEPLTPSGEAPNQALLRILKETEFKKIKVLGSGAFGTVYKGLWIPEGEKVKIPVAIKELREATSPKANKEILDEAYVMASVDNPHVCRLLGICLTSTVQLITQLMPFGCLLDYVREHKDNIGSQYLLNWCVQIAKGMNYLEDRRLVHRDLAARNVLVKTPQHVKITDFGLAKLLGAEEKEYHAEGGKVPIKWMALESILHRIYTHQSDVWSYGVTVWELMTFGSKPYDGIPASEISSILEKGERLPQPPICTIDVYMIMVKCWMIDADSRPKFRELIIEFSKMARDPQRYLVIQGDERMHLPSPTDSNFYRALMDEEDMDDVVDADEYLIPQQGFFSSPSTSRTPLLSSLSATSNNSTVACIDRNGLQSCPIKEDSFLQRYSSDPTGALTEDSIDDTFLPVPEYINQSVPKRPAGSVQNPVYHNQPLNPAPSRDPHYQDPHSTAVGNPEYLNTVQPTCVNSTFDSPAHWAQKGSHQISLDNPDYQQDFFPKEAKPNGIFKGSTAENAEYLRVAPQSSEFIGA
Experimental: Representative test compounds are evaluated in a standard pharmacological test procedure to measure their ability to inhibit the phosphorylation of the tyrosine residue of a peptide substrate catalyzed by the enzyme epidermal growth factor receptor kinase. […] The enzyme used in this assay is the His-tagged cytoplasmic domain of EGFR. […] Sf9 cells in 100 mm plates are infected at a multiplicity of infection of 10 pfu/cell and cells are harvested 48 h post infection. A cytoplasmic extract is prepared using 1% Triton X-100 and applied to Ni-NTA column. After washing the column with 20 mM imidazole, HcEGFR is eluted with 250 mM imidazole (in 50 mM Na2HPO4, pH 8.0, 300 mM NaCl). Fractions collected are dialyzed against 10 mM HEPES, pH 7.0, 50 mM NaCl, 10% glycerol, 1ug/mL antipain and leupeptin and 0.1 mM Pefabloc SC. The protein is frozen in dry ice/methanol and stored -70°C.
Test compounds are made into 10 mg/mL stock solutions in 100% dimethylsulfoxide (DMSO). Prior to experiment, stock solutions are diluted to 500 uM with 100% DMSO and then serially diluted to the desired concentration with HEPES buffer (30 mM HEPES pH 7.4).
For the enzyme reaction, 10 uL of each inhibitor (at various concentrations) are added to each well of a 96-well plate. To this is added 3 uL of enzyme (1:10 dilution in 10mM HEPES, pH 7.4 for final conc. of 1:120). This is allowed to sit for 10 min on ice and is followed by the addition of 5 ul peptide (80 uM final conc.), 10ul of 4X Buffer containing 50 mM HEPES (pH 7.4), 200 mM Na3VO4, 40mM MnCl2, 80 uM ATP, 0.25 uL ^33P-ATP (>2500 Ci/mmol; Amersham) and 12 uL H2O. The reaction is allowed to run for 90 min at room temperature and is followed by spotting the entire volume onto precut P81 filter papers. The filter discs are washed 2X with 0.5% phosphoric acid and radioactivity is measured using a liquid scintillation counter.
The % inhibition of the test compound is determined for at least three different concentrations and the IC50 value is evaluated from the dose response curve. […] CPM(control) is in units of counts per minute and is a number expressing the amount of radiolabled ATP (γ-^33P) incorporated into the RR-SRC peptide substrate by the enzyme after 90 minutes at room temperature in the absence of test compound as measured by liquid scintillation counting. The CPM values are corrected for the background counts produced by ATP in the absence of the enzymatic reaction.

T1 sequence (P04049 whole entry): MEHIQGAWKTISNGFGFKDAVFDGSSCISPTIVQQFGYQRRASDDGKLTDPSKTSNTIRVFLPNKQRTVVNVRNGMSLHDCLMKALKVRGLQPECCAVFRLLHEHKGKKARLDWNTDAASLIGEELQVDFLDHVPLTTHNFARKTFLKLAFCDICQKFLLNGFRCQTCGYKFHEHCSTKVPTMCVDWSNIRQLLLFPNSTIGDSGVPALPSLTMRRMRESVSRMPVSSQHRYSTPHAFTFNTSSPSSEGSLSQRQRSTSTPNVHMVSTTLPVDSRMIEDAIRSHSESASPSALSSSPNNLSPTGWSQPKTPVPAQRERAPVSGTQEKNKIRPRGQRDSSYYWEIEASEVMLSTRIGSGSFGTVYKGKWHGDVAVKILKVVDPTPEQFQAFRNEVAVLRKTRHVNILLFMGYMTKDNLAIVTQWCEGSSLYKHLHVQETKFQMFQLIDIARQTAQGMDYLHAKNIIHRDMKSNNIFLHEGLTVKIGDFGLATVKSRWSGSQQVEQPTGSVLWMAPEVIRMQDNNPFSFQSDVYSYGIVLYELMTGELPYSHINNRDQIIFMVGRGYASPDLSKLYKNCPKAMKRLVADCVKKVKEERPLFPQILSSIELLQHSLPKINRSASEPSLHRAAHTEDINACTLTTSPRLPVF

| SMILES | IC50 (Raf-1 (c-Raf)) | IC50 [1] | IC50 [2] | IC50 [3] |
| --- | --- | --- | --- | --- |
| N#Cc1cnc2c(c1Nc1ccc(Oc3ccccc3)cc1)C=C1N=CN=C1C2 [Example 44, 8-(4-Phenoxyanilino)imidazo[4,5-g]quinoline-7-carbonitrile] | 9 nM | 850 nM | 9.2 µM |  |
| COc1cc(Nc2c(C#N)cnc3cc4cc(OCCN5CCOCC5)c(OC)cc4cc23)c(C)cc1Cl [Example 124, 4-(4-chloro-5-methoxy-2-methylanilino)-7-methoxy-8-[2-(4-morpholinyl)ethoxy]benzo[g]quinoline-3-carbonitrile] | 130 nM |  |  | 3000 nM |
| COc1cc2cc3ncc(C#N)c(Nc4ccc(Oc5ccccc5)c(Cl)c4)c3cc2cc1OCCN1CCOCC1 [Example 214, 4-(3-Chloro-4-phenoxyphenylamino)-8-methoxy-7-(2-morpholin-4-yl-ethoxy)benzo[g]quinoline-3-carbonitrile] | 310 nM | 250 nM | 8 µM |  |
| COc1cc2cc3c(Nc4ccc(F)c(Cl)c4)c(C#N)cnc3cc2cc1OCCN1CCOCC1 [Example 205, 4-(3-Chloro-4-fluoroanilino)-7-methoxy-8-[2-(4-morpholinyl)ethoxy]benzo[g]quinoline-3-carbonitrile] |  |  |  | 250 nM |
| COc1cc2cc3c(Nc4ccc(Sc5nccn5C)c(Cl)c4)c(C#N)cnc3nc2cc1OCCCl [Example 174, 8-(2-Chloroethoxy)-4-{3-chloro-4-[(1-methyl-1H-imidazol-2-yl)sulfanyl]anilino}-7-methoxybenzo[b][1,8]naphthyridine-3-carbonitrile] | > 10000 nM | 440 nM | 4 µM |  |
| COc1cc2cc3c(Nc4ccc(Sc5nccn5C)c(Cl)c4)c(C#N)cnc3nc2cc1OCCN1CCOCC1 [Example 176, 4-{3-Chloro-4-[(1-methyl-1H-imidazol-2-yl)sulfanyl]anilino}-7-methoxy-8-[2-(4-morpholinyl)ethoxy]benzo[b][1,8]naphthyridine-3-carbonitrile] | 3000 nM | 3500 nM | 10 µM |  |
| COc1cc(Nc2c(C#N)cnc3cc4cc(OCCN5CCOCC5)c(OC)cc4cc23)c(Cl)cc1C [Example 216, 4-(2-Chloro-5-methoxy-4-methylphenylamino)-7-methoxy-8-(2-morpholin-4-yl-ethoxy)benzo[g]quinoline-3-carbonitrile] |  |  |  | 290 nM |
| COc1cc2cc3ncc(C#N)c(Nc4ccc(OCc5ccccc5)c(Cl)c4)c3cc2cc1OCCN1CCOCC1 [Example 217, 4-(4-Benzyloxy-3-chlorophenylamino)-8-methoxy-7-(2-morpholin-4-yl-ethoxy)benzo[g]quinoline-3-carbonitrile] | > 10000 nM | 480 nM | 4.8 µM |  |
| COc1cc2cc3c(Nc4ccc(Oc5ccccc5)c(Cl)c4)c(C#N)cnc3cc2cc1OCCN1CCOCC1 [Example 213, 4-(3-Chloro-4-phenoxyphenylamino)-7-methoxy-8-(2-morpholin-4-yl-ethoxy)benzo[g]quinoline-3-carbonitrile] | 27 nM | 300 nM | 1.4 µM |  |
